Assay results reported in the NIST ThermoML archive (doi:10.1021/je400849a).
Numbers after ± are expanded uncertainties.

Columns and labels:
[1] = refractive index (Na D-line) (dimensionless); details: 101.33 kPa, Liquid, Standard Abbe refractometry
[2] = 101.33 kPa, Liquid; for mass density: Vibrating tube method

Compound | refractive index ([1]; 298.15 K) | refractive index ([1]; 303.15 K) | refractive index ([1]; 308.15 K) | refractive index ([1]; 313.15 K) | refractive index ([1]; 318.15 K) | refractive index ([1]; 323.15 K) | refractive index ([1]; 328.15 K) | refractive index ([1]; 333.15 K) | mass density ([2]; 293.15 K) | mass density ([2]; 298.15 K) | viscosity ([2]; 303.15 K) | mass density ([2]; 303.15 K) | viscosity ([2]; 308.15 K) | mass density ([2]; 308.15 K) | viscosity ([2]; 313.15 K) | mass density ([2]; 313.15 K) | viscosity ([2]; 318.15 K) | mass density ([2]; 318.15 K) | viscosity ([2]; 323.15 K) | mass density ([2]; 323.15 K) | further results
CCCCCCCCCCCCOS(=O)(=O)[O-].CCCCn1cc[n+](CCC#N)c1 [1-butyl-3-(2-cyanoethyl)-1H-imidazol-3-ium dodecyl sulfate] | 1.48791 ± 0.00059 | 1.48619 ± 0.00059 | 1.48443 ± 0.00059 | 1.48232 ± 0.00059 | 1.48009 ± 0.00059 | 1.47842 ± 0.00059 | 1.47695 ± 0.00059 | 1.47487 ± 0.00059 | 1128.9 ± 1.9 kg/m3 | 1123.2 ± 1.8 kg/m3 | 4746 ± 580 mPa·s | 1119.8 ± 1.8 kg/m3 | 2938 ± 320 mPa·s | 1116.1 ± 1.8 kg/m3 | 1740 ± 170 mPa·s | 1112.2 ± 1.8 kg/m3 | 1144 ± 98 mPa·s | 1108.9 ± 1.8 kg/m3 | 768 ± 57 mPa·s | 1105 ± 1.8 kg/m3 | viscosity ([2]; 293.15 K): 13007 ± 2000 mPa·s; viscosity ([2]; 298.15 K): 7875 ± 1100 mPa·s; viscosity ([2]; 328.15 K): 485 ± 30 mPa·s; mass density ([2]; 328.15 K): 1101.9 ± 1.8 kg/m3; viscosity ([2]; 333.15 K): 338 ± 18 mPa·s; mass density ([2]; 333.15 K): 1097.7 ± 1.8 kg/m3; viscosity ([2]; 338.15 K): 235 ± 10 mPa·s; mass density ([2]; 338.15 K): 1093.6 ± 1.8 kg/m3; viscosity ([2]; 343.15 K): 162 ± 6 mPa·s; mass density ([2]; 343.15 K): 1089.7 ± 1.8 kg/m3; viscosity ([2]; 348.15 K): 114 ± 3 mPa·s; mass density ([2]; 348.15 K): 1086.3 ± 1.7 kg/m3; viscosity ([2]; 353.15 K): 76 ± 1 mPa·s; mass density ([2]; 353.15 K): 1082.2 ± 1.7 kg/m3
CCCCn1cc[n+](CCC#N)c1.O=S(=O)([O-])c1ccccc1 [1-butyl-3-(2-cyanoethyl)-1H-imidazolium benzenesulfonate] | 1.53378 ± 0.00061 | 1.53237 ± 0.00061 | 1.53113 ± 0.00061 | 1.52975 ± 0.00061 | 1.52824 ± 0.00061 | 1.52684 ± 0.00061 | 1.52544 ± 0.00061 | 1.52403 ± 0.00061 | 1240.3 ± 2.3 kg/m3 | 1236.8 ± 2.3 kg/m3 | 1806 ± 260 mPa·s | 1233.4 ± 2.3 kg/m3 | 1203 ± 160 mPa·s | 1230.2 ± 2.3 kg/m3 | 792 ± 89 mPa·s | 1226.3 ± 2.2 kg/m3 | 505 ± 48 mPa·s | 1223.7 ± 2.2 kg/m3 | 321 ± 25 mPa·s | 1220.3 ± 2.2 kg/m3 | viscosity ([2]; 293.15 K): 4612 ± 840 mPa·s; viscosity ([2]; 298.15 K): 2752 ± 450 mPa·s; viscosity ([2]; 328.15 K): 214 ± 13 mPa·s; mass density ([2]; 328.15 K): 1217.1 ± 2.2 kg/m3; viscosity ([2]; 333.15 K): 152 ± 7 mPa·s; mass density ([2]; 333.15 K): 1213.5 ± 2.2 kg/m3; viscosity ([2]; 338.15 K): 109 ± 4 mPa·s; mass density ([2]; 338.15 K): 1210.1 ± 2.2 kg/m3; viscosity ([2]; 343.15 K): 78 ± 2 mPa·s; mass density ([2]; 343.15 K): 1207.1 ± 2.2 kg/m3; viscosity ([2]; 348.15 K): 54 ± 1 mPa·s; mass density ([2]; 348.15 K): 1204.4 ± 2.2 kg/m3; viscosity ([2]; 353.15 K): 38 ± 1 mPa·s; mass density ([2]; 353.15 K): 1201.3 ± 2.2 kg/m3
CCCCCCCCCCn1cc[n+](CCC#N)c1.O=C([O-])c1cccc(S(=O)(=O)O)c1 [3-(2-cyanoethyl)-1-decylimidazolium 3-sulfobenzoate] | 1.51306 ± 0.00071 | 1.51163 ± 0.00071 | 1.50998 ± 0.00071 | 1.50871 ± 0.00071 | 1.50706 ± 0.00071 | 1.50582 ± 0.00071 | 1.5045 ± 0.00071 | 1.50322 ± 0.00071 | 1136.6 ± 2.8 kg/m3 | 1133.5 ± 2.8 kg/m3 | 11449 ± 1700 mPa·s | 1129.9 ± 2.8 kg/m3 | 7159 ± 960 mPa·s | 1126.3 ± 2.8 kg/m3 | 4606 ± 570 mPa·s | 1123.2 ± 2.8 kg/m3 | 3028 ± 340 mPa·s | 1119.8 ± 2.7 kg/m3 | 1977 ± 200 mPa·s | 1116.2 ± 2.7 kg/m3 | viscosity ([2]; 298.15 K): 17650 ± 2800 mPa·s; viscosity ([2]; 328.15 K): 1431 ± 130 mPa·s; mass density ([2]; 328.15 K): 1112.7 ± 2.7 kg/m3; viscosity ([2]; 333.15 K): 944 ± 76 mPa·s; mass density ([2]; 333.15 K): 1109.5 ± 2.7 kg/m3; viscosity ([2]; 338.15 K): 623 ± 44 mPa·s; mass density ([2]; 338.15 K): 1105.9 ± 2.7 kg/m3; viscosity ([2]; 343.15 K): 431 ± 26 mPa·s; mass density ([2]; 343.15 K): 1102.6 ± 2.6 kg/m3; viscosity ([2]; 348.15 K): 294 ± 15 mPa·s; mass density ([2]; 348.15 K): 1099.3 ± 2.6 kg/m3; viscosity ([2]; 353.15 K): 198 ± 8 mPa·s; mass density ([2]; 353.15 K): 1095.8 ± 2.6 kg/m3
CCCCCCCCCCCCOS(=O)(=O)[O-].CCCCCCCCCCn1cc[n+](CCC#N)c1 [3-(2-cyanoethyl)-1-decylimidazolium dodecylsulfate] | 1.47447 ± 0.00068 | 1.47296 ± 0.00068 | 1.47142 ± 0.00068 | 1.46972 ± 0.00068 | 1.46813 ± 0.00068 | 1.46678 ± 0.00068 | 1.46532 ± 0.00068 | 1.46391 ± 0.00068 | 1053 ± 2.2 kg/m3 | 1050.4 ± 2.2 kg/m3 | 16145 ± 2500 mPa·s | 1046.9 ± 2.1 kg/m3 | 10417 ± 1500 mPa·s | 1043.3 ± 2.1 kg/m3 | 6231 ± 820 mPa·s | 1041.8 ± 2.1 kg/m3 | 3951 ± 470 mPa·s | 1038.6 ± 2.1 kg/m3 | 2583 ± 280 mPa·s | 1036.1 ± 2.1 kg/m3 | viscosity ([2]; 328.15 K): 1757 ± 170 mPa·s; mass density ([2]; 328.15 K): 1034.3 ± 2.1 kg/m3; viscosity ([2]; 333.15 K): 1252 ± 110 mPa·s; mass density ([2]; 333.15 K): 1032.5 ± 2.1 kg/m3; viscosity ([2]; 338.15 K): 904 ± 72 mPa·s; mass density ([2]; 338.15 K): 1029.9 ± 2.1 kg/m3; viscosity ([2]; 343.15 K): 588 ± 40 mPa·s; mass density ([2]; 343.15 K): 1027.3 ± 2.1 kg/m3; viscosity ([2]; 348.15 K): 418 ± 25 mPa·s; mass density ([2]; 348.15 K): 1025.8 ± 2.1 kg/m3; viscosity ([2]; 353.15 K): 296 ± 15 mPa·s; mass density ([2]; 353.15 K): 1023.9 ± 2.1 kg/m3
